Laboratory results taken from PMC7643060, “Human perinatal stem cell derived extracellular matrix enables rapid maturation of hiPSC-CM structural and functional phenotypes” (Scientific Reports, 2020).

Legend:
[1] = test system: hiPSC-CM syncytia; test: Proarrhythmia screen in 96 well plates using CiPA compounds (voltage sensitive dye, optical mapping); type: cell-based, human; details: hiPSC-CM syncytia on Matrix Plus, 10 × ETPC, 30 min exposure
Method: MatrixPlus coated 6 or 96 well plates were stored at 4 °C, transferred to room temperature on the day of cell plating and rehydrated (30 min) in Hank’s Balanced Salt Solution (HBSS). HBSS was aspirated and hiPSC-CMs were plated essentially as before[17],[22]. Briefly, commercially available iCell[2] Cardiomyocytes (Cellular Dynamics International) were thawed at 37 °C for 4 min, diluted in 7 ml of EB20 medium supplemented with blebbistatin (DMEM:F12, 20%FBS, 0.1% glutamine, 0.2%NEAA, 25 µM blebbistatin) and centrifuged (1000 rpm for 5 min) for removal of cryoprotectants. All work with human pluripotent stem cell derived cardiomyocytes was performed with approval from the University of Michigan Human Pluripotent Stem Cell Research Oversight committee (HPSCRO). All methods with human samples were handled following NIH guidelines. Cells from a single vial were diluted in EB20 with blebbistatin ([…]) and split evenly for plating on Matrigel, CELLvo Matrix and MatrixPLUS. Total amount of cells per functional syncytia varied depending on plate format, six well plates received 150,000 cells in the center of 1 cm diameter of matrix; and 96 well plates received 75,000 cells per well. Lower density plating (25,000 cells per well) was also used to more clearly observe cellular shape. hiPSC-CMs were maintained in cardiomyocyte EB20 supplemented with blebbistatin for 2 days before culture in RPMI supplemented with B27 for another 5 days[1].
(§1) Proarrhythmia screening assay was performed using voltage sensitive dye (VSD, FluoVolt) and high speed CCD camera (200fps)[24]. […] Supplemental Tables 1–3 outline each drug tested, the CiPA risk classification, the concentrations used and the clinical recorded Cmax for each drug to provide clinical reference for drug concentrations. Cells were then submitted to optical mapping for detection of voltage changes recorded with the CCD camera via selection of appropriate light wavelength (filter 515 nm, green light, Chroma). Movies were analyzed with custom made analysis software (Scroll) for determination of action potential duration and conduction velocity as described before[22],[24],[25].
Supplemental tables 1-3 outline each drug tested, the CiPA risk classification, the concentrations used and the clinical recorded Cmax for each drug to provide clinical reference for drug concentrations. hiPSC-CM monolayers were then submitted to optical mapping for detection of membrane voltage changes recorded with the CCD camera via selection of appropriate light wavelength (filter 515 nm, green light, Chroma). Movies were analyzed with custom made analysis software (Scroll) for determination of action potential duration and conduction velocity where appropriate.

[2] = test system: hiPSC-CM monolayers; type: cell-based, human
Method: HBSS was aspirated and hiPSC-CMs were plated essentially as before[17],[22]. Briefly, commercially available iCell[2] Cardiomyocytes (Cellular Dynamics International) were thawed at 37 °C for 4 min, diluted in 7 ml of EB20 medium supplemented with blebbistatin (DMEM:F12, 20%FBS, 0.1% glutamine, 0.2%NEAA, 25 µM blebbistatin) and centrifuged (1000 rpm for 5 min) for removal of cryoprotectants. All work with human pluripotent stem cell derived cardiomyocytes was performed with approval from the University of Michigan Human Pluripotent Stem Cell Research Oversight committee (HPSCRO). All methods with human samples were handled following NIH guidelines. […]
as §1

SMILES	Wells with arrhythmias [1]	Appearance of arrhythmias of TdP [2]	Change of beat rate or conduction velocity [2]
CC(C)COCC(CN(Cc1ccccc1)c1ccccc1)N1CCCC1 (stereo not drawn) [bepridil]	did not yield arrhythmic responses		
CC(C)N(CCC(C(N)=O)(c1ccccc1)c1ccccn1)C(C)C (stereo not drawn) [disopyramide]	66%		
CN(CCOc1ccc(NS(C)(=O)=O)cc1)CCc1ccc(NS(C)(=O)=O)cc1 [dofetilide]	83%		
COc1ccccc1OCC(O)CN1CCN(CC(=O)Nc2c(C)cccc2C)CC1 (stereo not drawn) [ranolazine]	did not detect any arrhythmias	did not observe appearance of arrhythmias of TdP	did not significantly alter beat rate or conduction velocity
